Reference: patent publication US20230151100A1, “Method of Selecting Patients for Treatment with a Combination of an AXL Inhibitor and an Immune Checkpoint Modulator” (BERGENBIO ASA, priority 2020, published 2023)

What was measured:
[1] = tested on: CD8^+ T cell clusters in KPL9-3-1 TME; test: scRNAseq with paired TCR sequencing of CD8^+ T cell clusters in KPL9-3-1 tumors; type: in vivo, mouse; details: observed versus expected cell number per cluster
Experimental: The immune landscape of the tumors from each treatment group was assessed using scRNAseq of immune cells. Sequenced scRNA-seq samples were processed through Cellranger pipelines (v3.1.0). Cellranger count was used to align reads to mouse reference genome (mm10, 2020-A, from 10× Genomics) and generate single cell feature counts for single library.
For scTCR-seq data, TCR reads were aligned to reference genome and TCR annotation was performed using the 10×cellranger vdj pipeline with provided reference (cellranger-vdj-GRCm38-alts-ensemb1-4.0.0). Overall, 94% of T cells in scRNA-seq data were assigned a TCR and more than 70% had at least one full-length productive CDR3 for both TRA and TRB. The clonotype of each T cell was represented by the beta CDR3 sequences, and clone sizes ranged from 1 cell to 580 cells. Cellranger aggr were applied next to aggregate each sample library for grouped analysis with same effective sequencing depth. Seurat (3.2.1) package was used for downstream analysis.
To determine the potential lineage differentiation between those T cell populations with high TCR sharing. Monocle (version 2.0) (PMID: 24658644) was used to investigate transcriptional and developmental trajectories concerning different CD8+ or CD4+ T cell clusters. The data of raw counts together with cluster annotations were taken as input to monocle, and the default parameters were set to run data normalization and dimension reduction. Next, Monocle leaned the kinetics of gene expression by using the reversed graph embedding approach and places each cell along an inferred pseudotime trajectory. According to the assumption that the trajectory has a tree structure, functional “State” is identified based on the segment of the tree-like structure. […]
Treatment enriched cells in each cluster were calculated and compared based on the number of cells observed divided by expected number of cells in each cluster (FIG. 8D).

[2] = tested on: Bone marrow derived BMDCs; test: BMDC co-culture with irradiated KPL9-3-1 tumor cells, IFN beta ELISA; type: cell-based, mouse; details: BGB324 40 nM, 24 h; supernatant ELISA; versus DMSO
Experimental: Bone marrow derived BMDCs (2×10^5) were co-cultured with […] irradiated KPL9-3-1 tumor cells (2×10^6), with or without BGB324 treatment (40 nM). After 24 h, the cell supernatant was collected for analysis. The concentration of […] was measured by VeriKine-HS Mouse IFN Beta Serum ELISA kit (PBL Assay Science, Cat #42410), or VerKine Human IFN Beta ELISA kit (PBL Assay Science, Cat #414101) in accordance with the manufacturer's instructions. The plates were visualized by adding 100 μL of TMB solution and read at 450 nm using the SPECTROstarNano (BMG LABTECH).
The cells were treated with BGB324 or DMSO.

[3] = tested on: Kras^G12D, p53^−/− STK11^−/− mutant (KPL9-3) mouse lung cancer-derived cells; test: Subcutaneous KPL9-3 tumors in immune-competent mice, tumor volume; type: in vivo, mouse (C57Bl/6); details: anti-PD1 10 mg/kg i.p. twice a week for two weeks, BGB324 50 mg/kg oral gavage twice daily, or both
Experimental: Kras^G12D, p53^−/− mutant (KP9-1) or Kras^G12D, p53^−/− STK11^−/− mutant (KPL9-3) mouse lung cancer-derived cell lines were prepared using standard techniques known in the art. KP9-1 or KPL9-3 cells were propagated at sub-confluence and split on a regular basis.
Each animal was weighed before cell implantation. Injection of cells was performed after anesthetizing of the mice. The cell lines discussed above were injected subcutaneously into immune-competent mice (C57Bl/6 strain).
Mice were treated with either placebo or anti-PD1 therapeutic (200 μg/mouse, intraperitoneal, twice a week for two weeks).Tumor volume was assessed using hand held callipers and mouse weight were followed.
The Kras^G12D, p53^−/− STK11^−/− mutant (KPL9-3) mouse lung cancer-derived cells described above were implanted subcutaneously in immune-competent mice (C57Bl/6 strain) using the same protocol as described above.
Mice were treated with either placebo, anti-PD1 therapeutic (10 mg/kg, intraperitoneal, twice a week for two weeks), BGB324 (50 mg/kg, oral gavage, twice daily) or a combination of both drugs. Tumor volumes were measured.

[4] = tested on: Kras^G12D, p53 WT STK11^−/− mutant human A549 lung cancer cells; test: A549 xenografts in humanized mice, tumor volume; type: in vivo; details: anti-PD1 10 mg/kg i.p. 3 dosages, BGB324 50 mg/kg oral gavage twice daily for 3 weeks, or both
Experimental: Human non-small cell lung cancer (NSCLC) cells Kras^G12D, p53 WT STK11^−/− mutant human A549 lung cancer cells were cultured using standard protocols.
Each animal was weighed before cell implantation. Injection of the cells was performed after anesthetizing of the mice. Kras^G12D, p53 WT STK11^−/− mutant human A549 lung cancer cells were implanted subcutaneously in humanized immune-deficient mice.
Mice were treated with either placebo, anti-PD1 therapy (10 mg/kg, intraperitoneal, 3 dosages), BGB324 (50 mg/kg, oral gavage, twice daily for 3 weeks) or a combination of both drugs.

[5] = tested on: OT-1 CD8^+ T cells; test: BMDC co-culture with OT-1 CD8^+ T cells stimulated with ovalbumin, TCF1 expression by flow cytometry; type: cell-based, mouse; details: co-cultures of BMDC with OT-1 CD8^+ T cells stimulated by ovalbumin
[6] = tested on: KPL9-3-1 tumor cells; test: KPL9-3-1 subcutaneous allograft tumor growth; type: in vivo, mouse (C57BL/6J); details: KPL9-3-1 tumors; BGB324 50 mg/kg oral gavage twice daily, anti-PD-1 10 mg/kg i.p., alone or in combination; 3 weeks
Experimental: (§1) Control group were treated with control IgG (10 mg/kg) and vehicle (50 mg/kg). Tumor growth was measured every 3 days. […] The ratio of observed cell numbers to random expectation estimated by Roie index through chi-square test. +++ (Roien, P<0.05) represents highly enriched, ++ (1.2≤Ro/e<3, P<0.05) represents enriched, + (0.8≤Ro/e<1.2, P<0.05) represents weakly enriched, − (0<Ro/e<0.8, P<0.05) represents not significant or reduced.
For subcutaneous allografts, 1×10^6 cells in 100 ul phosphate buffered saline (PBS) were injected into the right dorsal flanks of 6-8 wks old mice. For xenografts growing on humanized mice, 1.5×10^6 cells in 100 ul phosphate buffered saline (PBS) were injected into the right dorsal flanks of reconstituted humanized mice.
Tumor bearing mice were randomly assigned into treatment groups when the tumor grew to around 100-150 mm^3. For each treatment group, 5 mice were assigned. 10 mg/kg anti-PD-1 (BioXCell, Cat #BE0146) treatment was given intraperitoneally on day 0, day 4 and day 7 after innoculation. The control group was treated with 10 mg/kg rat IgG2a isotype control (BioX Cell, Cat #BE0089) at the same day of PD-1 treatment, intraperitoneally. For the tumor growth measurement experiment, mice were treated for 3 weeks. […] Tumor volumes were measured by length (a), width (b) and height (h) in every 3 days and calculated as tumor volume=abh. […]

[7] = tested on: TCF1^+PD-1^+ CD8^+ T cells in KPL9-3-1 tumors; test: Tumor microenvironment analysis of KPL9-3-1 tumors (flow cytometry, IHC); type: in vivo, mouse (C57BL/6J)
Experimental: as §1
KPL9-3-1 allograft were implanted into mice as described above. 5 mice were assigned into each treatment group. 10 mg/kg anti-PD-1 (BioXCell, Cat #BE0146) treatment was given intraperitoneally on day 0, day 4 and day 7 after treatment. Control group of PD-1 treatment was treated with 10 mg/kg rat IgG2a isotype control (BioX Cell, Cat #BE0089) at the same day of PD-1 treatment, intraperitoneally. BGB324 were given through oral gavage twice daily, with a dose of 50 mg/kg.
For tumor growth measurement experiment, mice were treated for 3 weeks. For tumor microenvironment analysis, mice were treated for 7 days, when the tumor sizes in each treatment group are within 2-fold differences.Seven days after tumor inoculation, mice were treated with either BGB324 or anti-PD-1 alone, or in combination.

[8] = tested on: TCF1^+PD-1^+ cells among CD8^+ TILs; test: Intratumoral injection of IFNα, TCF1^+PD-1^+ CD8^+ TILs; type: in vivo, mouse; details: IFNα 200 ng intratumoral, 48 h
Experimental: Tumor tissues were excised and digested with 2 mg/mL Collagenase A (Sigma, Cat #SCR136) and 1 mg/ml DNase I (Roche, Cat #11284932001) under 37° C., 150 rpm shaking speed for 45 min. Digested materials then were transferred to a 70 μm cell strainer to remove clumped cells. Digested cells were washed twice with FACs buffer and ready for flow cytometry analysis.

[9] = tested on: non-small cell lung cancer; test: Earlier lines of therapy of trial patients 234008 and 211105 (case history); type: in vivo, human

## Nc1nc(Nc2ccc3c(c2)CC[C@@H](N2CCCC2)CC3)nn1-c1cc2c(nn1)-c1ccccc1CCC2 [BGB324, 1-(6,7-dihydro-5H-benzo[6,7]cyclohepta[1,2-c]pyridazin-3-yl)-N^3-((7-(S)-pyrrolidin-1-yl)-6,7,8,9-tetrahydro-5H-benzo[7]annulene-2-yl)-1H-1,2,4-triazole-3,5-diamine]
[1]
  enrichment of clonal expanded CD8^+ T cells (unique TCRs): enriched CD8^+ T cells expressing unique TCRs (clonal expanded) significantly
  enrichment of exhaustive effector CD8^+ T cells: also enriched
  enrichment of stem like T cells: also enriched
[2]
  secretion of Interferon type 1β (IFNβ): increased
[3]
  tumor sensitivity to therapy (tumor volume): resistant
[4]
  tumor sensitivity to therapy (tumor volume): resistant
[5]
  TCF1^+ expression on CD8^+ T cells: increased
[6]
  tumor growth control: Neither single treatment resulted in tumor growth control
[7]; flow cytometry, day 7 after treatment started
  infiltration of TCF1+PD-1^+ CD8^+ T cells: increased
[7]; immunohistochemistry
  TCF1^+PD-1^+ CD8^+ T cell presence in the tumor: enhanced
  distribution of CD8+ cells relative to tumor islands: large population of CD8+ cells, but these are grouped together, excluded from the tumor islands

## IFNα [reference compound]
[8]
  TCF1^+PD-1^+ cells among CD8^+ TILs after intratumoral injection: phenocopied
[5]
  TCF1^+ expression on CD8^+ T cells: increased

## carboplatin and paclitaxel
[9]; patient 234008
  duration of response to first-line therapy before progression: 22 months
[9]; patient 234008, before enrolling in the study
  response to first-line therapy: partial response

## pembrolizumab: anti-PD-1 antibody, immune checkpoint inhibitor
[9]; patient 211105, monotherapy after first-line progression
  duration of clinical benefit before progression: 18 months
